Results: PMC6865065 (Journal of clinical oncology : official journal of the …, 2016)
pIC50: −log10 of the molar value. Where “and” joins values, the source holds several entries; their conditions need not be identical. Equal values may be shown once. Entries after “also recorded” stand apart in the source; their conditions may differ. Read-outs that look alike come from different tables or passages of the source.

Experiments:
[1] = tested on: solid tumors harboring FGFR alterations; experiment: Antitumor activity, RECIST v1.0 tumor evaluations; format: in vivo, human
[2] = tested on: patients with advanced solid tumors harboring FGFR genetic alterations
serum phosphate levels = experiment: Pharmacodynamics: serum phosphate levels; format: in vivo, human; details: BGJ398 treatment; consistently at doses ≥ 100 mg
[3] = tested on: patients with advanced solid tumors harboring FGFR genetic alterations; experiment: Patient disposition and treatment exposure; format: in vivo
FGFR4 = details: read-out: Half maximal inhibitory concentration; cited from earlier work
[4] = Pharmacokinetics: BGJ398 plasma concentrations; format: in vivo, human
[5] = tested on: RT112 human tumor-derived FGFR gene fusion bladder cancer cell line; details: read-out: Half maximal inhibitory concentration; cited from earlier work
[6] = on the basis of preclinical data ref 20; cited from earlier work
[7] = 36 patients with FGFR1-amplified sqNSCLC, ≥ 100 mg continuously
[8] = eight patients with FGFR3-mutated bladder/urothelial cancer, ≥ 100 mg

CCN1CCN(c2ccc(Nc3cc(N(C)C(=O)Nc4c(Cl)c(OC)cc(OC)c4Cl)ncn3)cc2)CC1 [BGJ398, 3-(2,6-dichloro-3,5-dimethoxy-phenyl)-1-{6-[4-(4-ethyl-piperazin-1-yl)-phenylamino]-pyrimidin-4-yl}−1-methyl-urea]
Patients continuing to receive treatment for > 8 weeks ([1]; 31 sqNSCLC patients treated at 125 mg continuously): 12
Disease control rate (DCR: PR + SD) [1, 7]: 50%
Patients achieving PRs (overall response rate) [1, 7]: 11.1% and 11%
Patients with SD [1, 7]: 14 patients
Patients with reduced tumor burden ([1]; 85 patients treated at ≥ 100 mg with evaluable data (28 patients)): 32.9%
Time responder remained on study ([1]; FGFR1-amplified sqNSCLC, unconfirmed PR): 26.3 weeks
Patients with best overall response of SD ([1]; all patients, N = 132): 42
Tumor burden change ([1]; all three patients with FGFR2-altered cholangiocarcinoma with pre- and post-treatment assessments): reduced tumor burden
Patients with best response of SD ([1]; breast cancer, ≥ 100 mg, 10 of 32 patients): 31%
Partial responses ([1]; doses ≥ 100 mg, FGFR1-amplified sqNSCLC and FGFR3-mutant bladder/urothelial cancer, six confirmed): seven
Disease control rate (DCR) [1, 8]: 75%
Patients achieving PRs (overall response rate) [1, 8]: 37.5% and 38%
Patients with reduced tumor burden [1, 8]: 62.5%
Patients with disease control ([1]; of 132 patients across all doses): 49
Dose-limiting toxicity observed ([2]; 100 mg, n = 1): grade 3 aminotransferase elevations; also recorded: grade 3 increases in ALT/AST
Dose-limiting toxicity observed ([2]; 150 mg, n = 1 each): grade 1 corneal toxicity; also recorded: grade 3 aminotransferase elevations; also recorded: grade 3 increases in ALT/AST
Reversibility of DLTs ([2]; after BGJ398 interruption and/or concomitant medication): reversible
Patients who died while receiving treatment or within 28 days of the last dose ([2]; all doses, N = 132): Fifteen
Patients experiencing DLTs ([2]; dose-determining set, four of 34 patients, cycle 1): 11.8%
AE leading to discontinuation, patients ([2]; human, in vivo): 13.6%
AE requiring dose adjustment or interruption, patients ([2]; human, in vivo): 59.1%
Asymptomatic hyperphosphatemia suspected to be treatment related, patients ([2]; human, in vivo): 72.7%
At least one AE suspected to be treatment related, patients ([2]; human, in vivo): 95.5%
Eye-related AE leading to discontinuation, patients ([2]; human, in vivo): 4.5%
Grade 3/4 AE suspected to be treatment related, patients ([2]; human, in vivo): 31.1%
Grade 3/4 TEAEs, patients ([2]; human, in vivo): 52.3%
Median time to first dose interruption ([2]; human, in vivo): 22 days
Treatment-emergent AEs (TEAEs), patients ([2]; human, in vivo): 99.2%
Treatment-related alopecia, patients ([2]; human, in vivo): 23.5%
Treatment-related decreased appetite, patients ([2]; human, in vivo): 28.8%
Treatment-related diarrhea, patients ([2]; human, in vivo): 27.3%
Treatment-related fatigue, patients ([2]; human, in vivo): 25.0%
Treatment-related nausea, patients ([2]; human, in vivo): 22.0%
Treatment-related stomatitis, patients ([2]; human, in vivo): 36.4%
Dose-limiting toxicity observed ([2]; in vivo): hyperphosphatemia
Deaths attributed to PD or to related AEs ([2]; of fifteen deaths): 11
Deaths suspected to be BGJ398 related ([2]; of fifteen deaths): One
Maximum tolerated dose (MTD) ([2]; oral, once daily): 125 mg
Recommended phase II dose (RP2D) ([2]; oral, once daily, 3-weeks-on/1-week-off schedule): 125 mg
Serum phosphate levels (serum phosphate levels): increased serum phosphate levels; also recorded: Elevated serum phosphate levels
Discontinuation because of death ([3]; N = 132): 3.8%
Discontinuation because of disease progression ([3]; N = 132): 67.4%
Discontinuation because of AEs ([3]; human, in vivo): 12.9%
Increase of mean AUC from 0 to 24 hours on day 1 ([4]; from 20 to 150 mg once daily): approximately nine
Tmax ([4]; human, plasma, oral, Median time to reach maximum plasma concentration, after a single dose): 2 to 3 h
pIC50 [5]: 8.40
